Results as given in ChEMBL document CHEMBL1128643, “Impact of polyamine analogues on the NMDA receptor” (1995).

Key:
Rattus norvegicus [1] = species on record: Rattus norvegicus; assay: Compound was evaluated for agonist activity at 10 uM exhibiting moderate antagonism of [3H]MK-801 binding relative to 100% control; assay type: functional; design: unit: % of control
Rattus norvegicus [2] = species on record: Rattus norvegicus; assay: Compound was evaluated for agonist activity at 1 uM exhibiting moderate antagonism of [3H]MK-801 binding relative to 100% control; assay type: functional; design: unit: % of control

| SMILES | Activity (Rattus norvegicus [1]) | Activity (Rattus norvegicus [2]) |
| --- | --- | --- |
| CCNCCCCNCCCCNCCCCNCC [DIETHYLHOMOSPERMINE] | 53.9 | 114.3 |
| CC(C)(C)NCCCCNCCCCNCCCCNC(C)(C)C | 33 | 106.5 |
| CCNCCCNCCCCNCCCNCC [BIS(ETHYL)SPERMINE] | 63.7 | 113.7 |
| C(CCNCCCCN[C@]12C[C@H]3C[C@H](C[C@H](C3)C1)C2)CNCCCCNC12C[C@H]3C[C@@H](C1)C[C@@H](C2)C3.Cl | 15 | 101.9 |
| CNCCCNCCCNCCCNC | 87.9 | 120.6 |
| CNCCCCNCCCCNCCCCNC | 76.3 | 117.8 |
| NCCCNCCCCNCCCN [SPERMINE] |  | 123.2 |
